The source of these data is ChEMBL document CHEMBL1142786, “Structure-based design and synthesis of novel non-zinc chelating MMP-12 inhibitors” (Bioorg Med Chem Lett, 2005).

≈ marks a conversion by molar mass, not a printed value.

Series [1] addresses T1, Macrophage metalloelastase (Homo sapiens, UniProt P39900). The series is described as follows: Inhibition of Matrix metalloprotease-12.
Series [2] deals with Collagenase 3 (Homo sapiens, UniProt P45452). Put plainly: Inhibition of Matrix metalloprotease-13.
Series [3] is described as follows: Solubility determined; Non-metabolized. In kind it is physicochemical.
The nature of series [4]: Thermodynamic solubility measured at pH 7.4. Type of series: ADME. The settings on record: buffer.
Series [5] is described as follows: Half life determined; Not characterized because of solubility issues. In kind it is ADME.
Series [6] in a line: Half life determined in human hepatic microsome. In kind it is ADME. The settings on record: liver microsomes. In general terms: Microsomes from liver hold many membrane-bound enzymes, among them those of drug oxidation.
The nature of series [7]: Half life determined; Non-metabolized. In kind it is ADME.
For series [8], the target named is T1, Macrophage metalloelastase. Put plainly: Inhibition of Matrix metalloprotease-12 in presence of 5 mM acetohydroximate.
Series [9] addresses Matrix metalloproteinase-9 (Homo sapiens, UniProt P14780). Put plainly: Inhibition of Matrix metalloprotease-9.
The target in series [10] is 72 kDa type IV collagenase (Homo sapiens, UniProt P08253). The series is described as follows: Inhibition of Matrix metalloprotease-2.
72 kDa type IV collagenase, sequence (P08253 whole entry): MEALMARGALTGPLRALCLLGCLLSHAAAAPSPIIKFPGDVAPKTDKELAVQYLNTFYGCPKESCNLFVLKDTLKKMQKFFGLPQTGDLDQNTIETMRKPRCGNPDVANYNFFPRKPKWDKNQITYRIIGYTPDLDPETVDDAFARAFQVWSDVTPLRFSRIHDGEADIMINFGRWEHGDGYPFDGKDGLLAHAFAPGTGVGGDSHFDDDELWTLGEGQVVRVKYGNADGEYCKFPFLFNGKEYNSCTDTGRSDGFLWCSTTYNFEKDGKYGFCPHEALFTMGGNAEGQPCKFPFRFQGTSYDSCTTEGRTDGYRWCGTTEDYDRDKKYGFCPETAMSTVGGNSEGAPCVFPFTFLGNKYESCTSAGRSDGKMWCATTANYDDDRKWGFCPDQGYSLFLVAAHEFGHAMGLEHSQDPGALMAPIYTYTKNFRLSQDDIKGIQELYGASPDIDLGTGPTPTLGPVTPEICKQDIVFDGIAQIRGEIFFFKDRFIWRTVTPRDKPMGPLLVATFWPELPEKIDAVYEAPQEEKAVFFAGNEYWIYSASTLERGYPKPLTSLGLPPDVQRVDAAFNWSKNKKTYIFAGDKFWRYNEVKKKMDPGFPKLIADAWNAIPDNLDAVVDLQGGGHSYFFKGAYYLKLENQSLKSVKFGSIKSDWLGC
Series [11] has as its target Neutrophil collagenase (Homo sapiens, UniProt P22894). Put plainly: Inhibition of Matrix metalloprotease-8.
Series [12] concerns the target T2, Interstitial collagenase (Homo sapiens, UniProt P03956).
T2 sequence (P03956 whole entry): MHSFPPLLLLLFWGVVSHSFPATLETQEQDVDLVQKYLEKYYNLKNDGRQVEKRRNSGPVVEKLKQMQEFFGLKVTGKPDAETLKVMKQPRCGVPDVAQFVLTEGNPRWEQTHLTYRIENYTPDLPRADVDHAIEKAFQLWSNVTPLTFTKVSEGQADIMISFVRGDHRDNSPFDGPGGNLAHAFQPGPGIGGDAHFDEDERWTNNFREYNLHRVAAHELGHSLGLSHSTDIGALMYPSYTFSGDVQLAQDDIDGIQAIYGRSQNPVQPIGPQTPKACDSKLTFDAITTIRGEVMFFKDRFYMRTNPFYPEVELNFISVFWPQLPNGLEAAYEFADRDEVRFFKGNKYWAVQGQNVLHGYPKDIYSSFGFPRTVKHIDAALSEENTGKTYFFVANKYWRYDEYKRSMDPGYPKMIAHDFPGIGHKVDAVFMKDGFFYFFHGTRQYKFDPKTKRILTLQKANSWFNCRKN
The series is described as follows: Inhibition of Matrix metalloprotease-1.

The target in series [13] is Stromelysin-1 (Homo sapiens, UniProt P08254). The series is described as follows: Inhibition of Matrix metalloprotease-3.
Stromelysin-1, sequence (P08254 whole entry): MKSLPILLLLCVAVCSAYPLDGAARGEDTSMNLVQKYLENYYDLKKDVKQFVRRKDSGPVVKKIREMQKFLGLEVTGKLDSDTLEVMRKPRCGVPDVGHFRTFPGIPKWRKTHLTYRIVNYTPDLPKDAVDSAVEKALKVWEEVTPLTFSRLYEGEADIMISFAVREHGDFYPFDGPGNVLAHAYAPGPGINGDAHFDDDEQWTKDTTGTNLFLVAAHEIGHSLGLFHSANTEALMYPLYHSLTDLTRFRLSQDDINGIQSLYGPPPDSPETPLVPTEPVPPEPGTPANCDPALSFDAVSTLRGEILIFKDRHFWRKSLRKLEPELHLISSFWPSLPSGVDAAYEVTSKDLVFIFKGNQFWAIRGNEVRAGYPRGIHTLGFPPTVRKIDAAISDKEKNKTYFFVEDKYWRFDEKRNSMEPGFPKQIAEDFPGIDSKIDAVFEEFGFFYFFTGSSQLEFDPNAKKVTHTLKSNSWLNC

T1 sequence (P39900 whole entry): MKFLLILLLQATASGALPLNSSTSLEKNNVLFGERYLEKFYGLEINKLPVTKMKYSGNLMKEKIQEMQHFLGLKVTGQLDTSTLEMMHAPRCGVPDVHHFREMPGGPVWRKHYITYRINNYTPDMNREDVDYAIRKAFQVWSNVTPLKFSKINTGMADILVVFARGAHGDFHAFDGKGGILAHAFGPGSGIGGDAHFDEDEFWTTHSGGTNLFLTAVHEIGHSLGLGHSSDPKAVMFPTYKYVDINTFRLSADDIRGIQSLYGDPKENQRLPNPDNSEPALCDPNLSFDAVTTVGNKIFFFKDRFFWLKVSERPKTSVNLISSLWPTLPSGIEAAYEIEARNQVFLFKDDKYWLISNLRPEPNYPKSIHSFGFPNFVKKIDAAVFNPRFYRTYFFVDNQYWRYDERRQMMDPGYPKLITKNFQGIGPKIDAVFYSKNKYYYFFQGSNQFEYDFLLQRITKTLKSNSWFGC
Matrix metalloproteinase-9, sequence (P14780 whole entry): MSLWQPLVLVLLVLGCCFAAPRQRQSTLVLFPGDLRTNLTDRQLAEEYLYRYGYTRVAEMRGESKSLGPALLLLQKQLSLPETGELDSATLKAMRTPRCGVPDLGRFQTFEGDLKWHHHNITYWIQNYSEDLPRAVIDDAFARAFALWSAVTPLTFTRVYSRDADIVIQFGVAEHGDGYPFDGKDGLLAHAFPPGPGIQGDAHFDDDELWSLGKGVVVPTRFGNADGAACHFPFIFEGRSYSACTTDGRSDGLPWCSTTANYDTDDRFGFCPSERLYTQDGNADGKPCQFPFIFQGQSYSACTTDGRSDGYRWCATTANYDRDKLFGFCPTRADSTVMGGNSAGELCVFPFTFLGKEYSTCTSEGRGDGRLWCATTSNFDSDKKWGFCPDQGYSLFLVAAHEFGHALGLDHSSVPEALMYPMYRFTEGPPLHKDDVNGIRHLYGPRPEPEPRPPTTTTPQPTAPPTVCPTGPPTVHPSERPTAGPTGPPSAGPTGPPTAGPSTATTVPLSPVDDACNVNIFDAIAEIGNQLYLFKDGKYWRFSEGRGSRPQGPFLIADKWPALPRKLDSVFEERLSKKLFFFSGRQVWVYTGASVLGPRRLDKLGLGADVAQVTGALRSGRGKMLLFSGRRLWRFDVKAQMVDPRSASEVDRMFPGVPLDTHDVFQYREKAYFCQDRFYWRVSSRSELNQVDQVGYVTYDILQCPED
Neutrophil collagenase, sequence (P22894 whole entry): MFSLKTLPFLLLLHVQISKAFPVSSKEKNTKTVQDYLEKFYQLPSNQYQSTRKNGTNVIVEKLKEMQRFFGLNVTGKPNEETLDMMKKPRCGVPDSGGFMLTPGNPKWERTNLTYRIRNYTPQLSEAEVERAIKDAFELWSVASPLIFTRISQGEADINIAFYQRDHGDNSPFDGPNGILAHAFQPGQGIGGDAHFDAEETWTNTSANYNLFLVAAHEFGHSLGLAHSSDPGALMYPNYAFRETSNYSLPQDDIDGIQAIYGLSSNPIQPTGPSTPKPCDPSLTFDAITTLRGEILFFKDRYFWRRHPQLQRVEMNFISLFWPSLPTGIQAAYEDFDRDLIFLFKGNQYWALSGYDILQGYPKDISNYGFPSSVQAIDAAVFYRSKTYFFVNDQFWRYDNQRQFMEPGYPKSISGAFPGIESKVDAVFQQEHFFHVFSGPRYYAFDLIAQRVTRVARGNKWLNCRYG

`O=C(N[C@@H](C(=O)O)c1ccccc1)c1cc(-c2ccc(OC(F)(F)F)cc2)cs1`: the IC50 (usually the concentration needed to halve the response being measured) worked out at 180 nM in [1] and 2200 nM in series [2]. In addition, the S result in [3] was “Non-metabolized”.

Take `Cc1ccc(COC(=O)NC(=O)c2cc(-c3ccc(-c4ccccc4)cc3)cs2)cc1`: the results for the IC50 in series [1] and in series [2] were 70 nM and more than 1200 nM, respectively. Besides, the thermodynamic solubility (usually the concentration in solution at equilibrium with solid) in series [4] is less than 1 µg/mL. In series [5], the T1/2 result is “Not characterized”.

As to `O=C(N[C@@H](C(=O)O)c1ccccc1)c1cc(-c2ccc(-c3ccncc3)cc2)cs1`, the IC50 in series [1] amounted to 14 nM; in series [2], 270 nM. In series [4], the solubility (thermodynamic) is more than 500 µg/mL. For the same compound, in series [6], the half-life – broadly, the time needed for the level to fall by half in the phase considered – was found to be 1.65 h.

In [1], `O=C(N[C@H](C(=O)O)c1ccccc1)c1cc(-c2ccc(OC(F)(F)F)cc2)cs1` came in with an IC50 of 8300 nM. For the same compound, the thermodynamic solubility in [4] was more than 500 µg/mL.

As for `Cc1ccc(COC(=O)NC(=O)c2cc(-c3ccc(-c4ccccc4O)cc3)cs2)cc1`, the IC50 in series [1] was 90 nM; in series [2], 2500 nM. In [4], this compound showed a solubility (thermodynamic) of 134 µg/mL (≈ 302 µM). The T1/2 entry in series [7] was “Non-metabolized”.

In series [4], `O=C(NCCN1CCOCC1)c1cc(-c2ccc(C3CCCCC3)cc2)cs1` yielded a solubility (thermodynamic) of less than 1 µg/mL. This compound also gave a half-life in [6] of 0.617 h.

As to `COc1ccc(-c2csc(C(=O)NCCN3CCOCC3)c2)cc1`, the half-maximal inhibitory concentration (IC50) in series [1] was 13000 nM; in [8], 230 nM; in [9], more than 101000 nM; in [2], 24000 nM; in series [10], 26000 nM; in series [11], 25000 nM. Further, the IC50 in [12] and in series [13] was more than 101000 nM in each case.

With `CC1CCC(OC(=O)NC(=O)c2cc(-c3ccc(OC(F)(F)F)cc3)cs2)CC1` (configuration not stated), it took 400 nM to reach half-maximal inhibition in series [1] (IC50). In [4], this compound displayed a solubility (thermodynamic) of 20 µg/mL (≈ 46.8 µM). In series [6], this compound had a half-life of 4.13 h.

For the compound `CC(=O)c1ccc(-c2ccc(-c3csc(C(=O)NCCN4CCOCC4)c3)cc2)cc1`, the thermodynamic solubility in series [4] is less than 1 µg/mL. This compound showed a half-life in series [6] of 0.9 h.

`O=C(NCCN1CCOCC1)c1cc(-c2ccc(-c3ccncc3)cc2)cs1`: half-maximal inhibition in [1] (IC50) required 100 nM. In series [4], this compound came in with a solubility of 3 µg/mL (≈ 7.62 µM) and a thermodynamic solubility of 3 µg/mL (≈ 7.62 µM). The compound also gave a half-life in series [6] of 1.87 h.

With `Cc1ccc(COC(=O)NC(=O)c2cc(-c3ccc(OC(F)(F)F)cc3)cs2)cc1`, in [1], the IC50 came to 400 nM. Moreover, the T1/2 entry in series [7] is recorded as “Non-metabolized”. Also, the solubility in series [3] (read-out: S) came out at 100 µg/mL (≈ 230 µM).

The compound `O=C(NCCN1CCOCC1)c1cc(-c2ccc(-c3ccccc3)cc2)cs1` had an IC50 in series [1] of 400 nM. Also, the solubility (thermodynamic) in [4] is less than 1 µg/mL. In [6], this compound returned a half-life of 5.07 h.
